Data from patent US9464093B2, “Substituted imidazo[4',5':4,5]cyclopenta[1,2-e]pyrrolo[1,2-a]pyrazines and oxazolo[4',5':4,5]cyclopenta[1,2-e]pyrrolo[1,2-a]pyrazines for treating brain cancer” (Mayo Foundation for Medical Education and Research, priority 2012, dated 2016).
Like-named read-outs stand apart in the source and are kept apart here.

Columns and labels:
[1] = test system: DU145 prostate cancer cells; assay: Cytotoxicity, MTT method, DU145; details: read-out: Cytotoxicity (IC50, μM) DU145
Method: The cell suspension in the culture medium was plated into each well of 96-well plates (10,000 cells/well/100 μL). After 24 h, testing compounds were added, and then the plates were incubated for an additional 24 h in a humidified atmosphere of 5% CO2 at 37° C. […] The IC50 value was determined by linear interpolation from the growth inhibition curve.

[2] = test system: Raji B cells (Burkitt's lymphoma cells); assay: Cytotoxicity, cell count, Raji (Example 4); details: read-out: Cytotoxicity (IC50, μM) Raji
Method: (§1) Raji cells and MB-468 cells were purchased from American Tissue Culture (Manassas, Va.). […] Cells were harvested and counted on the third day in a Coulter Particle Counter (Beckman-Coulter Corp.: Brea, Calif.). IC50 values were calculated using GraphPad Prism 5 (GraphPad Software Inc., La Jolla, Calif.).

[3] = test system: MB-468 (triple-negative breast cancer cells); assay: Cytotoxicity, cell count, MB-468 (Example 4); details: read-out: Cytotoxicity (IC50, μM) MB-468
Method: as §1

Row | Compound | IC50 ([1]; Homo sapiens, DU-145, 24 h) | IC50 ([2]; Homo sapiens, Raji) | IC50 [3] | other results
1 | CN1C(=O)N[C@H]2[C@@H]3NC(=O)c4ccc(-c5ccc(N)cc5)n4[C@@H]3C[C@]21O [APAA, p-aminophenylagelastatin A] | > 10 µM | – | – | –
2 | CN1C(=O)N[C@H]2[C@@H]3NC(=O)c4ccc(C5CC5)n4[C@@H]3C[C@]21O [CPAA, cyclopropylagelastatin A] | 5 µM | 0.4 µM | 1 µM | –
3 | CCN1C(=O)N[C@H]2[C@@H]3NC(=O)c4cccn4[C@@H]3C[C@]21O [DeBEAA, debromoethylagelastatin A] | > 10 µM | – | – | –
4 | CCN1C(=O)N[C@H]2[C@@H]3NC(=O)c4ccc(Br)n4[C@@H]3C[C@]21O [EAA, ethylagelastatin A] | > 10 µM | – | – | –
5 | COc1ccc(CN2C(=O)N[C@H]3[C@@H]4NC(=O)c5ccc(Br)n5[C@@H]4C[C@]32O)cc1 [N-PMBAA, N-p-methoxybenzyl agelastatin A] | > 10 µM | – | – | –
6 | CN1C(=O)N[C@H]2[C@@H]3NC(=O)c4ccc(-c5ccccc5)n4[C@@H]3C[C@]21O [PAA, phenylagelastatin A] | 6 µM | 3.8 µM | 1.5 µM | –
7 | CNC(=O)N[C@H]1[C@@H]2NC(=O)c3ccc(Br)n3[C@@H]2C[C@H]1O [UAA, ureaagelastaitin A] | – | > 10 µM | > 10 µM | –
8 | CN1C(=O)N[C@@H]2[C@H]3NC(=O)c4ccc(Br)n4[C@H]3C[C@@]21O [ent-AA] | – | – | – | IC50 ([1]; MTT, 24 h incubation): > 10 µM
9 | debromoagelastatin A [DeBAA] | – | – | – | IC50 ([1]; MTT, 24 h incubation): > 10 µM; IC50 ([2]; cells counted on the third day): 3.16 µM; IC50 ([3]; cells counted on the third day): 3 µM
